Read-outs that look alike come from different tables or passages of the source. Values belong to the molecule of their own block, whether it stands above or below them.
Experiments:
[1] = Single-dose pharmacokinetics in dogs (plasma, UHPLC/MS/MS); format: in vivo, Beagle dogs; conditions: for MRT last: read-out: MRT0-t; for MRT inf: read-out: MRT0-∞
Excerpt: Sixty healthy adult Sprague Dawley rats (180-220 g, half male and female) were purchased from the Guangdong Medical Laboratory Animal Center (Guangzhou, Guangdong, China). Thirty Beagle dogs (10-14 kg, half male and female) were purchased from the […] Laboratory Animal Science & Technology Co., Ltd. (Gaoyao, Guangdong, China). All animals were housed under humanized conditions with free access to food and water, and acclimated to the living conditions for at least one week prior to experimentation at the Laboratory Animal Center of the School of Life Sciences, Sun Yat-sen University. Environmental conditions were maintained at 20°C-25°C, 55% ± 15% relative humidity, 12-h light/dark cycles, and 12 air changes per hour. Prior to experimentation, the animals were fasted overnight with water available ad libitum. All animals were healthy based on physical examination and laboratory analyses performed before and after the experiments. At the end of the experiments, the dogs were returned to the Laboratory Animal Center of School of Life Sciences, Sun Yat-sen University. […] All blood samples were transferred into heparin-treated centrifuge tubes and centrifuged for 10 min at 4,000 rpm and 4°C. All human urine samples were mixed and transferred (4 ml) into storage tubes. All biological samples were stored at -80°C. […] The optimal volume and activity in unit volume of enzyme solution [0.2 M acetic acid/water solution: 0.2 M ammonium acetate/water solution, 15:35 (v/v)] were determined through a pretest of the enzyme (rat plasma, 10 μl, 10 U μl^-1; dog plasma, 10 μl, 10 U μl^-1; human plasma, 20 μl, 20 U μl^-1; human urine, 10 μl, 10 U μl^-1). After enzyme incubation, 10 μl of IS solution was added to the plasma and urine samples (2 μg ml^-1 quercetin 3-β-D-glucoside for rat and dog plasma; 583 ng ml^-1 naringin-D4 and 160 ng ml^-1 naringenin-D4 for human plasma; and 9,710 ng ml^-1 naringin-D4 and 6,000 ng ml^-1 naringenin-D4 for human urine). To each fecal sample, 9-fold methanol-normal saline (2:1, v/v) was added, mixed (18,000 rpm, 15 min) by vortexing and centrifuged (10 min, 9,000 rpm, 4°C). Next, 10 μl IS solution (971 ng ml^-1 naringin-D4 and 600 ng ml^-1 naringenin-D4) was added to the supernatants of feces (200 μl) without enzyme incubation. […] The solid material was dissolved with acetonitrile-water (1:1, v/v) and injected into the ultra high-performance liquid chromatography coupled with triple quadrupole mass spectrometry (UHPLC/MS/MS) system as described below. The analysis of nonclinical and clinical samples was performed with a UHPLC/MS/MS system that consisted of a Shimadzu Nexera X2 ultra high-performance liquid chromatography (UHPLC) (Shimadzu Corp., Kyoto, Japan) coupled with an AB Sciex API4000 triple-quadrupole mass spectrometry (MS/MS) system (AB Sciex, Foster City, CA, USA) equipped with an electrospray ionization source and controlled by Analyst (v. 1.6.2) software. […] The injection volume was 10 μl with the flow rate of 0.3 ml min^-1 for plasma, and 0.4 ml min^-1 for urine and feces. The compounds were detected by multiple reaction monitoring in the negative ion electrospray mode. The electrospray source conditions were as follows: ion source gas1 30 psi, ion source gas2 60 psi, curtain gas 20 psi, collisionally activated dissociation (CAD) gas 8 psi, temperature 500°C, and ion spray voltage -4,500 V. Zero air was used for ion source gas1 and ion source gas2 and nitrogen for curtain gas and CAD gas. […] All pharmacokinetic and excretion parameters were expressed as mean ± standard deviation (SD). All mean and SD values were reported to three significant figures. The pharmacokinetic parameters were calculated using the Phoenix WinNonlin software (Version 6.4, Pharsight Corp., Cary, NC, USA) and compared using the Student's t-test (p < 0.05) in SPSS 18.0 (SPSS Inc., Chicago, IL, USA). […]

[2] = Stability of naringin and naringenin in human feces with active enzymes; format: in vitro ADME; conditions: human feces in normal saline, 37°C for 12 h (over night)
Description: Next, 9-fold normal saline, instead of ninefold methanol-normal saline (2:1, v/v), was added to maintain enzyme activity in the feces. […] These samples were maintained at 37°C for 12 h.

[3] = both sexes, Beagle, dog, plasma, po, 3.1 mg/kg
[4] = both sexes, Beagle, dog, plasma, po, 12.4 mg/kg
[5] = both sexes, beagle, dog, plasma, iv, 12.4 mg/kg
[6] = both sexes, beagle, dog, plasma, po, 49.6 mg/kg
[7] = female, Beagle, dog, plasma, iv, 12.4 mg/kg
[8] = female, Beagle, dog, plasma, po, 3.1 mg/kg
[9] = female, Beagle, dog, plasma, po, 12.4 mg/kg
[10] = female, Beagle, dog, plasma, po, 49.6 mg/kg
[11] = male, Beagle, dog, plasma, iv, 12.4 mg/kg
[12] = male, Beagle, dog, plasma, po, 3.1 mg/kg
[13] = male, Beagle, dog, plasma, po, 12.4 mg/kg
[14] = male, Beagle, dog, plasma, po, 49.6 mg/kg
[15] = naringin 3.1 mg kg^-1 p.o. single dose, dog
[16] = naringin 12.4 mg kg^-1 p.o. single dose, dog
[17] = naringin 49.6 mg kg^-1 p.o. single dose, dog

half-life ([1]; both sexes, Beagle, dog, plasma, oral, naringenin in dogs, studies overall): 2.03 ± 0.968 h
lag-time in plasma ([1]; dogs, after p.o. naringin): 1.83 ± 0.923 h
time for concentrations to increase to Cmax after the lag-time ([1]; dogs, after p.o. naringin): 4.17 ± 1.68 h
amount detected in feces relative to the amount added [2]: less than 20%
Structure (SMILES): O=C1C[C@@H](c2ccc(O)cc2)Oc2cc(O)cc(O)c21 [naringenin, Naringenin]

Structure (SMILES): C[C@@H]1O[C@@H](O[C@H]2[C@H](Oc3cc(O)c4c(c3)O[C@H](c3ccc(O)cc3)CC4=O)O[C@H](CO)[C@@H](O)[C@@H]2O)[C@H](O)[C@H](O)[C@H]1O [naringin, Naringin]
half-life ([1]; both sexes, Beagle, dog, plasma, po): 1.41 ± 0.671 h
AUC(0-inf) [1, 3]: 129 ± 78.2 ng·h/mL
AUC(0-t) [1, 3]: 108 ± 58.8 ng·h/mL
Cmax [1, 3]: 39.9 ± 10.4 ng/mL
Tmax [1, 3]: 1.33 ± 0.258 h
half-life [1, 3]: 1.84 ± 1.46 h
MRT last [1, 3]: 2.5 ± 1.05 h
MRT inf [1, 3]: 3.38 ± 1.88 h
AUC(0-inf) [1, 4]: 135 ± 35.5 ng·h/mL
AUC(0-t) [1, 4]: 124 ± 32.2 ng·h/mL
Cmax [1, 4]: 70.2 ± 16.9 ng/mL
Tmax [1, 4]: 1 ± 0.316 h
half-life [1, 4]: 1.31 ± 0.581 h
MRT last [1, 4]: 1.77 ± 0.371 h
MRT inf [1, 4]: 2.17 ± 0.633 h
Tmax ([1]; both sexes, Beagle, dog, plasma, po, dogs, nonclinical p.o. administration studies overall): 1.11 ± 0.344 h
AUC(0-inf) [1, 5]: 2930 ± 403 ng·h/mL
AUC(0-t) [1, 5]: 2920 ± 406 ng·h/mL
Cmax [1, 5]: 5800 ± 946 ng/mL
Tmax [1, 5]: 0.08 h
clearance [1, 5]: 71.8 mL/min/kg
half-life [1, 5]: 1.37 ± 0.347 h
MRT last [1, 5]: 0.703 ± 0.153 h
MRT inf [1, 5]: 0.727 ± 0.143 h
Vd ([1]; both sexes, beagle, dog, plasma, iv, 12.4 mg/kg, read-out: Vd): 8.69 ± 3.35 L/kg
AUC(0-inf) [1, 6]: 224 ± 104 ng·h/mL
AUC(0-t) [1, 6]: 211 ± 92.1 ng·h/mL
Cmax [1, 6]: 107 ± 78.2 ng/mL
Tmax [1, 6]: 1 ± 0.447 h
half-life [1, 6]: 1.31 ± 0.293 h
MRT last [1, 6]: 2.46 ± 1.11 h
MRT inf [1, 6]: 2.73 ± 1.02 h
AUC(0-inf) [1, 7]: 3200 ± 337 ng·h/mL
AUC(0-t) [1, 7]: 3190 ± 344 ng·h/mL
Cmax [1, 7]: 5860 ± 1070 ng/mL
Tmax [1, 7]: 0.08 h
half-life [1, 7]: 1.25 ± 0.317 h
AUC(0-inf) [1, 8]: 109 ± 67.7 ng·h/mL
AUC(0-t) [1, 8]: 88.5 ± 40 ng·h/mL
Cmax [1, 8]: 36.8 ± 12.6 ng/mL
Tmax [1, 8]: 1.17 ± 0.289 h
half-life [1, 8]: 1.26 ± 0.633 h
AUC(0-inf) [1, 9]: 132 ± 36.8 ng·h/mL
AUC(0-t) [1, 9]: 115 ± 27.9 ng·h/mL
Cmax [1, 9]: 60.2 ± 10.8 ng/mL
Tmax [1, 9]: 1 ± 0.1 h
half-life [1, 9]: 1.42 ± 0.782 h
AUC(0-inf) [1, 10]: 262 ± 144 ng·h/mL
AUC(0-t) [1, 10]: 240 ± 128 ng·h/mL
Cmax [1, 10]: 157 ± 87.5 ng/mL
Tmax [1, 10]: 1.17 ± 0.289 h
half-life [1, 10]: 1.13 ± 0.312 h
AUC(0-inf) [1, 11]: 2640 ± 255 ng·h/mL
AUC(0-t) [1, 11]: 2640 ± 256 ng·h/mL
Cmax [1, 11]: 5740 ± 1050 ng/mL
Tmax [1, 11]: 0.08 h
half-life [1, 11]: 1.48 ± 0.404 h
AUC(0-inf) [1, 12]: 149 ± 97.4 ng·h/mL
AUC(0-t) [1, 12]: 128 ± 76.6 ng·h/mL
Cmax [1, 12]: 42.9 ± 9.19 ng/mL
Tmax [1, 12]: 1.5 ± 0.231 h
half-life [1, 12]: 2.41 ± 1.98 h
AUC(0-inf) [1, 13]: 137 ± 42.3 ng·h/mL
AUC(0-t) [1, 13]: 132 ± 40 ng·h/mL
Cmax [1, 13]: 80.2 ± 17.2 ng/mL
Tmax [1, 13]: 1 ± 0.5 h
half-life [1, 13]: 1.2 ± 0.443 h
AUC(0-inf) [1, 14]: 185 ± 45.5 ng·h/mL
AUC(0-t) [1, 14]: 181 ± 46.7 ng·h/mL
Cmax [1, 14]: 56.6 ± 6.83 ng/mL
Tmax [1, 14]: 0.833 ± 0.577 h
half-life [1, 14]: 1.5 ± 0.117 h
CL [1, 15]: 520 ± 257 mL/min/kg
Vd [1, 15]: 61.2 ± 23.0 L/kg
CL [1, 16]: 1630 ± 453 mL/min/kg
Vd [1, 16]: 171 ± 59.4 L/kg
CL [1, 17]: 4450 ± 2120 mL/min/kg
Vd [1, 17]: 482 ± 173 L/kg
